Measurements: patent US10017481B2, “Conformationally constrained, fully synthetic macrocyclic compounds” (POLYPHOR AG, priority 2012, dated 2018)
Values belong to the compound of their own block, whether it stands above or below them.

Assays:
[1] = molecular target: T1, Thyrotropin-releasing hormone receptor (TRH receptor) (Homo sapiens, UniProt P34981); experiment: Ca2+ flux (FLIPR) assay, TRH receptor, agonist/antagonist mode; assay type: cell-based; details: antagonist mode
T1 construct: expressed in transfected cells; host or cells: Ca2+ optimized hematopoietic cell lines (rat)
T1 sequence (P34981 1-398): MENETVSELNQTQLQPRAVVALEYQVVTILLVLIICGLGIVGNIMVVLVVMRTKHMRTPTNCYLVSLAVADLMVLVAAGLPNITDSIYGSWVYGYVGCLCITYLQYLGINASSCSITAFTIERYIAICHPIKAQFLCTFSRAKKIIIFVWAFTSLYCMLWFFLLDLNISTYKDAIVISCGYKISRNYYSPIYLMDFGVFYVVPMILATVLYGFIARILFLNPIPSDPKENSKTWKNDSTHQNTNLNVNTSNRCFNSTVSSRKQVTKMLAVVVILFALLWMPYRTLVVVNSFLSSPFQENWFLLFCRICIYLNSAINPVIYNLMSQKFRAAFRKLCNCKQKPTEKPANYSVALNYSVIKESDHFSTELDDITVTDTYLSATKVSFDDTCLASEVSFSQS
Method: Biological and Pharmacological Methods 1. Ca^2+ Flux Assays for the GPCRs Oxytocin Receptor (OT Receptor), Thyrotropin-Releasing Hormone Receptor (TRH Receptor) and Bombesin Receptor Subtype 3 (BB3 Receptor)
Assays were performed on a FLIPR^TETRA fluorometric imaging plate reader (Molecular Devices) with ScreenWorks Version 2 (Molecular Devices) as device operating and data analysis software.
Dose dependent agonist and antagonist activities were determined. Percentage activation and percentage inhibition values were determined.
Percentage activation was determined upon initial addition of the sample compounds followed by 10 minutes' incubation at 25° C. Following compound incubation, reference agonists were added at EC80 to determine percentage inhibition.
Reference agonists were purchased from reputable commercial vendors and prepared according to each ligand's specifications. All handling of ligands were done to ensure proper control throughout the experiments.
Example compounds were weighed on a Microbalance (Mettler MX5) and dissolved in 100% DMSO to a final concentration of 2.5 mM and subsequently diluted into the assay buffer.
The assay buffer was a supplemented HBSS (Hank's Balanced Salt Solution). HBSS was supplemented with 20 mM HEPES (4-(2-hydroxyethyl)-piperazin-1-ethansulfonic acid) and 2.5 mM Probenecid (Sigma P8761).
GPCR assays were performed using Ca^2+ optimized hematopoietic cell lines (rat) with cultures never exceeding 90% confluency. Cells were harvested and seeded (from cultures at less than 90% confluency) at 50000 cells/well for a 96-well plate (12500 cells/well for 384). After seeding, the assay plates were incubated for 45 minutes at room temperature. After room temperature incubation, the assay plates were incubated at 37° C. 5% CO2 for 24 hours prior to assaying.
All GPCR assays were performed using Fluo-8 Ca^2+ dye.
Ca^2+ dye was prepared at 1× dye concentration in GPCR assay buffer. After 24 hours of incubation, cells were washed with GPCR assay buffer, and then Ca^2+-dye (100 μL/well) was added.
The plates were incubated for 90 minutes at 30° C. 5% CO2 prior to FLIPR assay.
Compound plates were prepared to add 50 μL/well during the agonist assay mode. During the FLIPR assay, 50 μL/well from the compound plate was diluted 3-fold into the existing 100 μL/well from the dye loading step. Therefore all compounds were prepared as 3× the final concentration desired in the assay.
After completion of the first single addition assay run, assay plate was removed from the FLIPR Tetra and placed at 25° C. for 7 minutes before antagonist assay.
Using the EC80 values determined during the agonist assay, all pre-incubated sample compound and reference antagonist (if applicable) wells were stimulated at the EC80 of the reference agonist. As reference ligands for these assays their obvious natural ligands oxytocin (OT), thyrotropin-releasing hormone (TRH) and bombesin (6-14) [BN(6-14)] were used.
After the addition of the reference agonist fluorescence was monitored for 180 sec using FLIPR Tetra.
From the FLIPR data, with negative control correction enabled, the maximum statistic for each well was exported and percentage activation relative to Emax control was calculated.

[2] = Metabolic stability assay, human liver microsomes; assay type: in vitro ADME; details: human microsomes, 10 μM, 37° C.
In short: (§1)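 Pooled human (50 donors, mixed gender) or CD-1 mouse microsomes at 1 mg/mL protein, 10 μM compound, 100 mM potassium phosphate with NADPH-regenerating system, 37 °C in duplicate. Samples at 0, 5, 10, 20, 60 min analysed by HPLC/MS/MS; turnover as % of 0-min value and T½ (min) calculated.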

[3] = Metabolic stability assay, CD-1 mouse microsomes; assay type: in vitro ADME; details: CD-1 mouse microsomes, 10 μM, 37° C.
In short: as §1

[4] = Plasma stability assay, human plasma; assay type: in vitro ADME
In short: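 Compounds at 10 μM were incubated at 37 °C in triplicate in sodium citrate-stabilized plasma (human, or pooled mixed-gender CD-1 mouse). Samples taken at 0–240 min were acetonitrile-quenched and analyzed by HPLC/MS/MS. Remaining peak area as % of t0 gave endpoint stability (%) and half-life (min).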

[5] = molecular target: T2, human leukotriene B4 receptor (LTB4R) (Homo sapiens, UniProt Q15722); experiment: Human LTB4 receptor cell-based assay (CHO mito-i-Photina, flash luminescence); details: antagonist mode
T2 construct: host or cells: CHO mito-i-Photina cells
T2 sequence (Q15722 whole entry): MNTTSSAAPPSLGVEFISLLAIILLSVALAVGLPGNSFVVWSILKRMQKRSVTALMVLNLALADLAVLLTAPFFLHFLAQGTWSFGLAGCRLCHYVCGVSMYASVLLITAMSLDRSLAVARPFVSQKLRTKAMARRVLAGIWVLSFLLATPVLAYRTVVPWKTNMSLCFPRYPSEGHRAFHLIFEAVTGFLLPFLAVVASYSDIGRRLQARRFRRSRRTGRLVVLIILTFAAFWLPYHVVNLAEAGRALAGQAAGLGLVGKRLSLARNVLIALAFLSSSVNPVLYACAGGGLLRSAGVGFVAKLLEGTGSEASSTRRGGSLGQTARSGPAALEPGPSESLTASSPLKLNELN
Source text: 3. Human LTB4 Receptor Cell-Based Assay
CHO mito-i-Photina® cells (Axxam SpA) stably expressing the human leukotriene B4 receptor (LTB4R) were used for monitoring activation of the target LTB4R, a GPCR (Gαq), by measuring the flash luminescence of Ca^2+ sensitive photoprotein as reporter system with FLIPR^TETRA screening instrumentation (Molecular Devices) upgraded with an ICCD Camera (MDC). For data quality check and data analysis a Genedata Screener 10.0.3 was used, and for curve fitting of reference agonist and antagonist GraphPad Prism Software.
The reference agonist LTB4 and antagonist U-75302 were purchased from reputable commercial vendors and prepared according to each ligand's specifications. All handling of ligands were done to ensure proper control throughout the experiments.
The steps of the implemented workflow and data analysis are mainly as follows:
mito-1-Photina cells are seeded (10000 c/w in 384 MTP; in complete medium 25 μL/well) for 24 hours, removed from the incubator, equilibrated at room temperature for 1 h, freed from the growth medium, loaded with 30 μL/well of Tyrode's buffer containing 10 μM coelenterazine, and incubated for 3 hours at rt.
All compounds were tested at 10 μM with triplicate data points.
After incubation, the volume in all the wells is flattened to 20 μL by aspiration with CyBi®-Vario pipettor. The First Injection (10 μL of test compounds or reference antagonist U-75302 in Tyrode's buffer+DMSO 0.5%) is performed by the FLIPR^TETRA and the kinetic response is monitored over a period of 120 seconds. Incubation at rt for 10 min. is followed by the Second Injection (15 μL of LTB4 at EC80 in Tyrode's buffer) and monitoring of the kinetic response over a period of 120 seconds.
The possible kinetic response is divided into two distinct phases: Monitoring the kinetic response after the First Injection is indicated as Compound Addition (CA) and measures the agonistic activity of compounds; monitoring the kinetic response after the Second Injection is indicated as Target Activation (TA) and measures the antagonistic activity of a compound.
The activity determination (IC50 determination) experiment is performed using LTB4 as agonist (100 nM corresponding to EC80). Selected compound are tested in 8 doses intraplate dose response with quadruplicate data points.

IC50 [1]: 1400 nM
inhibition at 10 µM [1]: 91%
SMILES: O=C(CN1CCCC1)N[C@H]1C[C@H]2COc3cccc(c3)-c3ccccc3C(=O)NCC[C@@H](NC(=O)Cc3cccc4ccccc34)C(=O)N2C1 [Ex. 7, N-[(12R,16S,18S)-8,13-dioxo-16-{[2-(1-pyrrolidinyl)acetyl]amino}-20-oxa-9,14-diazatetracyclo[19.3.1.0^2,7.0^14,18]pentacosa-1(25),2,4,6,21,23-hexaen-12-yl]-2-(1-naphthyl)acetamide]

inhibition at 10 µM [1]: 34%
SMILES: O=C(CN1CCCC1)N[C@H]1C[C@H]2COc3cccc(c3)-c3ccccc3C(=O)NCC[C@@H](NC(=O)CC3CCCCC3)C(=O)N2C1 [Ex. 335, 2-cyclohexyl-N-[(12R,16S,18S)-8,13-dioxo-16-{[2-(1-pyrrolidinyl)acetyl]amino}-20-oxa-9,14-diazatetracyclo[19.3.1.0^2,7.0^14,18]pentacosa-1(25),2,4,6,21,23-hexaen-12-yl]acetamide]

IC50 [1]: 8200 nM
inhibition at 10 µM [1]: 48%
SMILES: O=C(CN1CCCC1)N[C@H]1C[C@H]2COc3cccc(c3)-c3ccccc3C(=O)NCC[C@@H](NC(=O)Nc3cccc4ccccc34)C(=O)N2C1 [Ex. 336, N-[(12R,16S,18S)-12-{[(1-naphthylamino)carbonyl]amino}-8,13-dioxo-20-oxa-9,14-diazatetracyclo[19.3.1.0^2,7.0^14,18]pentacosa-1(25),2,4,6,21,23-hexaen-16-yl]-2-(1-pyrrolidinyl)acetamide]

Continued, compound first:

SMILES: COc1ccc2c(c1)-c1cccc(c1)C(=O)N(C)[C@H](C(=O)NCc1cccnc1)CCC(=O)N[C@H](C)CO2 [Ex. 50, (10R,15S)-4-methoxy-10,16-dimethyl-12,17-dioxo-N-(3-pyridinylmethyl)-8-oxa-11,16-diazatricyclo[16.3.1.0^2,7]docosa-1(22),2,4,6,18,20-hexaene-15-carboxamide]
half-life at 10 μM ([2]; both sexes, liver microsomes, 1 mg/ml protein, read-out: Metabolic Stability T ½ [min] hum): > 60 min
Metabolic Stability 60 min hum [% remain.] ([2]; 60 min): 53 % remain.
Metabolic Stability 60 min mouse/(rat) [% remain.] ([3]; 60 min): 34 % remain.
half-life at 10 μM ([3]; both sexes, 1 mg/ml protein, read-out: Metabolic Stability T ½ [min] mouse/(rat)): 40 min
Plasma Stability 240 min hum [% remain.] ([4]; human plasma, 240 min, 10 μM, 37° C.): 100 % remain.
half-life at 10 μM ([4]; human, plasma): > 240 min
IC50 [5]: 1970 nM
inhibition at 10 µM ([5]; 10 μM): 100%

SMILES: O=C(Cn1ccnc1)N[C@H]1C[C@H]2COc3cccc(c3)-c3ccccc3C(=O)NCC[C@@H](NC(=O)Cc3cccc4ccccc34)C(=O)N2C1 [Ex. 332, 2-(1H-imidazol-1-yl)-N-[(12R,16S,18S)-12-{[2-(1-naphthyl)acetyl]amino}-8,13-dioxo-20-oxa-9,14-diazatetracyclo[19.3.1.0^2,7.0^14,18]pentacosa-1(25),2,4,6,21,23-hexaen-16-yl]acetamide]
inhibition at 10 µM [1]: 29%

SMILES: O=C(Cc1cccc2ccccc12)N[C@@H]1CCNC(=O)c2ccccc2-c2cccc(c2)OC[C@@H]2C[C@H](NC(=O)Nc3cccnc3)CN2C1=O [Ex. 333, N-[(12R,16S,18S)-8,13-dioxo-16-{[(3-pyridinylamino)carbonyl]amino}-20-oxa-9,14-diazatetracyclo[19.3.1.0^2,7.0^14,18]pentacosa-1(25),2,4,6,21,23-hexaen-12-yl]-2-(1-naphthyl)acetamide]
inhibition at 10 µM [1]: 35%

SMILES: O=C(CN1CCCC1)N[C@H]1C[C@H]2COc3cccc(c3)-c3ccccc3C(=O)NCC[C@@H](NC(=O)Cc3cccc(Cl)c3)C(=O)N2C1 [Ex. 334, 2-(3-chlorophenyl)-N-[(12R,16S,18S)-8,13-dioxo-16-{[2-(1-pyrrolidinyl)acetyl]amino}-20-oxa-9,14-diazatetracyclo[19.3.1.0^2,7.0^14,18]pentacosa-1(25),2,4,6,21,23-hexaen-12-yl]acetamide]
inhibition at 10 µM [1]: 40%
